The values below come from patent US4605642A, “CRF antagonists” (The Salk Institute for Biological Studies, priority 1984, dated 1986).

One test has as its system ACTH secretion. The experiment in a line: ACTH secretion in vivo after intravenous hCRF in rat preparations. The protocol: (§1) Plasma levels of ACTH and β-END-LI are elevated for at least 5-20 minutes following the intraveneous administration of hCRF to nembutal-anesthesized male rats and to quiescent male or female rats with indwelling intravenous cannulae.
Another test concerns β-END-LI secretion. The experiment in a line: β-END-LI secretion in vivo after intravenous hCRF in rat preparations. The protocol:
as §1

The test system of test [1] is secretion of β-endorphin by cultured rat pituitary cells. The experiment in a line: Blocking of β-endorphin (β-END-LI) secretion by cultured rat pituitary cells. As to conditions: general procedure set forth in Example III. Type of test: cell-based. The protocol: (§2) The effectiveness of synthetic CRF antagonists to block the secretion of ACTH and β-endorphin by cultured rat pituitary cells is measured using the procedure as generally set forth in Vale et al., Endocrinology, 91, 562 (1972). In vivo testing is carried out using the general procedure set forth in C. Rivier et al., Science, 218, 377 (1982).

Test [2] in a line: Blood pressure lowering by antagonist. Format: in vivo. As to conditions: general procedure set forth in Example III.
Test [3] has as its system secretion of ACTH by cultured rat pituitary cells. The experiment in a line: Blocking of oCRF-stimulated ACTH secretion by cultured rat pituitary cells. Format: cell-based. As to conditions: for inhibition of the secretion of ACTH (in words): general procedure set forth in Example III. How it is done:
as §2

Test [4] deals with TRF-stimulated secretion of TSH and prolactin. Kind of test: Specificity: TRF-stimulated secretion of TSH and prolactin. Type of test: cell-based. To be noted: specificity of inhibition.
The test system of a further test is spontaneous ACTH release. Kind of test: Spontaneous ACTH release by adrenalectomized rats. Type of test: in vivo, rat. To be noted: iv 3 mg/kg BW (2.7 nmole). The protocol: as §2
The in vivo effect of CRF antagonists is tested on the spontaneous ACTH release by adrenalectomized rats.

Test [5] concerns GRF-stimulated secretion of GH. The experiment in a line: Specificity: GRF-stimulated secretion of GH. Format: cell-based. To be noted: specificity of inhibition.
Test [6] relates to GnRH-stimulated secretion of LH and FSH. Kind of test: Specificity: GnRH-stimulated secretion of LH and FSH. Type of test: cell-based. As to conditions: specificity of inhibition.
Setting [7] is: intravenous, nembutal-anesthetized male rats and quiescent cannulated male or female rats.

Take `CC[C@H](C)[C@H](NC(=O)[C@@H](NC(=O)[C@H](CCC(=O)O)NC(=O)[C@H](CCSC)NC(=O)[C@H](CC(C)C)NC(=O)[C@H](CCCCN)NC(=O)[C@H](CCCNC(=N)N)NC(=O)[C@H](CC(N)=O)NC(=O)[C@H](CO)NC(=O)[C@H](Cc1c[nH]cn1)NC(=O)[C@H](C)NC(=O)[C@H](CCC(N)=O)NC(=O)[C@H](CCC(N)=O)NC(=O)[C@H](C)NC(=O)[C@H](CC(C)C)NC(=O)[C@H](CCC(N)=O)NC(=O)[C@H](CCC(=O)O)NC(=O)[C@H](C)NC(=O)[C@H](CCCNC(=N)N)NC(=O)[C@H](C)NC(=O)[C@H](CCSC)NC(=O)[C@H](CCC(=O)O)NC(=O)[C@H](CC(C)C)NC(=O)[C@@H](NC(=O)[C@H](CCC(=O)O)NC(=O)[C@H](CCCNC(=N)N)NC(=O)[C@H](CC(C)C)NC(=O)[C@H](CC(C)C)NC(=O)[C@H](Cc1c[nH]cn1)NC(=O)[C@H](Cc1ccccc1)NC(=O)[C@@H](NC(=O)[C@H](CC(C)C)NC(=O)[C@H](CC(=O)O)NC(=O)[C@H](CC(C)C)NC(=O)[C@H](CO)NC(=O)[C@@H](NC(=O)[C@@H]1CCCN1C(=O)[C@@H]1CCCN1C(=O)[C@H](CCC(=O)O)NC(=O)[C@H](CCC(=O)O)NC(=O)[C@@H](N)CO)[C@@H](C)CC)[C@@H](C)O)C(C)C)[C@@H](C)CC)C(N)=O` [hCRF]: in the test on ACTH secretion (setting [7]), the “time for which plasma levels of ACTH are elevated” value fell in the range of 5 to 20 min. Moreover, the “stimulation of ACTH secretion in vivo” value with ACTH secretion (several rat preparations) is listed as “powerful stimulator”. Moreover, in the test with β-END-LI secretion (setting [7]), the “time for which plasma levels of β-END-LI are elevated” value was 5 to 20 min. In addition, the “stimulation of β-END-LI secretion in vivo” value in the test on β-END-LI secretion (several rat preparations) is on record as “powerful stimulator”.

As for “H-Asp-CML-Thr-Leu-Glu-CML-Leu-Arg-Glu-Met-CML-Glu-Met-Ala-Lys-Ala-Glu-Gln- CML-Ala-Glu-Gln-Ala-Ala-CML-Asn-Arg-Leu-CML-Leu-Glu-Glu-Ala-NH2 [[CML^10,14,19,27,33,38]-AHC(9-41)]”, the “inhibition of the secretion of β-END-LI (in words)” value (“inhibition … of β-END-LI (in words)” for short) in [1] is on record as “inhibits the secretion”. For the same molecule, the “lowering of blood pressure” value in test [2] is given as “very significant lowering of blood pressure”. The “inhibition of the secretion of ACTH (in words)” value (from here on “inhibition … of ACTH (in words)”) in test [3] is “inhibits the secretion”.

For the molecule “H-DLTFALLREMLEMAKAEQEAEQAALNRLLLEEA-NH2 [[Ala^13]-AHC(9-41)]”, the “inhibition … of β-END-LI (in words)” value in [1] was “inhibits the secretion”. For the same molecule, the “inhibition … of ACTH (in words)” value in [3] is “inhibits the secretion”.

Regarding “H-DLTFELLREVLEVARAEQLAQQAHSNRKLMEII-NH2 [[Glu^13, Val^21]-hCRF(9-41)]”, the “inhibition … of β-END-LI (in words)” value in test [1] is “inhibits the secretion”. Besides, the “inhibition … of ACTH (in words)” value in test [3] is “inhibits the secretion”.

In the case of “H-DLTFHLLREMLEMAKAEQEAEQAALNRLLLEEA-NH2 [AHC (9-41)]”, the “effect on the TRF-stimulated secretion of TSH and prolactin” value in test [4] is “no effect”. In the test with spontaneous ACTH release, the “plasma ACTH levels (spontaneous ACTH release)” value was “marked decrease”. Also, the “effect on the GRF-stimulated secretion of GH” value in test [5] is given as “no effect”. Moreover, the “effect on the GnRH-stimulated secretion of LH and FSH” value in test [6] is “no effect”. Besides, the IC50 in test [3] (cultured rat pituitary cells, 1 nM oCRF, five independent experiments, read-out: concentration that blocks the secretion of ACTH due to 1 nM oCRF by 50%) stood at 197 ± 72 nM. In test [3] (several concentrations of oCRF and of antagonist, constant oCRF 1 nM), the “type of inhibition of oCRF-stimulated ACTH secretion” value is recorded as “competitive inhibition”. Besides, the “potency as CRF antagonist (in words)” value in test [3] (test not stated at the place) is reported as “particularly potent”.

As to “H-DLTFHLLREVAEMTRAEQLAQQAHSNRKLMEII-NH2 [[Ala^19, Thr^22]-hCRF(9-41)]”, the “inhibition … of β-END-LI (in words)” value in [1] is on record as “inhibits the secretion”. Moreover, the “inhibition … of ACTH (in words)” value in [3] is recorded as “inhibits the secretion”.

“H-DLTFHLLRNMIEMARNENQREQAGLNRKYLDEV-NH2 [Carp Urotensin I(9-41)]”: in test [1], the “inhibition … of β-END-LI (in words)” value is “inhibits the secretion”. For the same molecule, the “inhibition … of ACTH (in words)” value in test [3] is “inhibits the secretion”.

Take “H-DLTLELLREMLEMAKAEQEAEQAALNRLLLEEA-NH2 [[Leu^12, Glu^13]-AHC(9-41)]”: the “inhibition … of β-END-LI (in words)” value in [1] is given as “inhibits the secretion”. For the same molecule, the “inhibition … of ACTH (in words)” value in test [3] is recorded as “inhibits the secretion”.

As for “H-IDLTFHLLRNMIEMARNENQREQAGLNRKYLDEV-NH2 [Carp Urotensin I(8-41)]”, the “inhibition … of β-END-LI (in words)” value in [1] is on record as “inhibits the secretion”. In addition, the “inhibition … of ACTH (in words)” value in test [3] is reported as “inhibits the secretion”.

Turning to “H-LDLTFHLLREVLEMAKAEQLAQQAHSNRKLLEII-NH2 [[Lys^23, Leu^38]-hCRF(8-41)]”, in test [1], the “inhibition … of β-END-LI (in words)” value is “inhibits the secretion”. In addition, the “inhibition … of ACTH (in words)” value in [3] is given as “inhibits the secretion”.

“H-LDLTLELLREMLEMEKAEKEAEQAALNRLLLEEA-NH2 [[Glu^13,22, Leu^12, Lys^26]-AHC(8-41)]”: in [1], the “inhibition … of β-END-LI (in words)” value is “inhibits the secretion”. The “inhibition … of ACTH (in words)” value in test [3] is recorded as “inhibits the secretion”.

With H-LSLELLRKMIEARKQEKEKQQAANNRLLLDII-NH2, in test [1], the “inhibition … of β-END-LI (in words)” value is listed as “inhibits the secretion”. Besides, the “inhibition … of ACTH (in words)” value in [3] is reported as “inhibits the secretion”.
